Measured values as given in patent publication US20010041669A1, “Prevention of diabetes” (priority 1995, published 2001).

What was measured:
[1] = system: receptor (receptor binding assay) or mouse free fat cell (lipogenesis); test: Biological activity relative to human insulin, receptor binding or lipogenesis assays; conditions: for Activity relative to human insulin (= 1.00): either receptor binding or lipogenesis assays
Text: Metab. Res. 6, 12-16 and Vølund (1978) Biometrics 34, 357-365 or in the receptor binding assay as described by Andersen et al. (1992) J. Biol. Chem. 267, 13681-13686.
Methods of analysing the biological activity (hypoglycaemic effect) of insulins are well know, and include receptor binding assays using whole cells or soluble receptors, the mouse free fat cell assay, euglycaemic pig clamp assay, intravenous rabbit blood glucose assay and the subcutaneous mouse blood glucose assay (Vølund et al. (1991) Diabetic Medicine, 8, 839-847, Brange et al. (1990) Diabetes Care 13, 923-954, Drejer (1992) Diabetes/Metabolism Reviews 8, 259-286)

NOD mice [2] = test: Prophylactic effect of daily subcutaneous administration on diabetes and survival in NOD mice (Example 2); format: in vivo; conditions: for protection against development of diabetes compared with human insulin: daily s.c., equimolar doses (0.77 mg/kg), NOD mice; for diabetes incidence versus buffer treated animals at 40 weeks of age: s.c. daily 0.77 mg/kg from 5 to 32 weeks of age, after termination of treatment; for diabetes incidence versus buffer treated animals at 31 weeks of age: s.c. daily 0.77 mg/kg from 5 weeks of age, after 26 weeks of treatment, female NOD mice; for mice died of hypoglycaemia during the treatment period: 0.77 mg/kg
Procedure: Female NOD (non-obese diabetic) mice, 4 weeks old, were obtained from Bommice (Bomholtgård, Ry, Denmark). At the beginning of the experiment there were a total of 30 animals in each of the three groups mentioned below. […] The treatment was continued until the mice were 32 weeks old, at which age treatment was stopped and the mice observed until they were 40 weeks old. Beginning when the mice were 10 weeks old, the urine was tested weekly for the presence of glucose using glucosuria test tape (Tes-Tape, Lilly, Indianapolis, Ind.). If an animal tested positive in the glucose urine test, a blood sample was taken and blood glucose measured using a glucose analyzer. If the blood glucose was 15 mmol/l or higher, the animal was classified as diabetic and then sacrificed.

NOD mice [3] = test: Daily subcutaneous administration in the initial stage of diabetes in NOD mice (Example 3); format: in vivo; conditions: for frequency of diabetes compared to buffer treated animals: s.c. daily 0.77 mg/kg from 10 to 37 weeks of age, effect from 15 weeks until end, female NOD mice; for cases of diabetes after termination of the treatment: treatment stopped at 37 weeks, observed until 39 weeks
Procedure: Female NOD (non-obese diabetic) mice, 4-5 weeks old, were obtained from the Jackson Laboratory (Bar Harbour, Me.). At the beginning of the experiment, there were a total of 20 animals in each of the three groups mentioned below. […] The treatment was continued until the mice were 37 weeks old, at which age treatment was stopped. The mice were observed until they were 39 weeks old. Beginning when the mice were 10 weeks old, the urine was tested weekly for the presence of glucose using glucosuria test tape (Tes-Tape, Lilly, Indianapolis, Ind.). If an animal tested positive in the glucose urine test, a blood sample was taken and blood glucose measured using a glucose analyzer. If the blood glucose was 15 mmol/l or higher, the animal was classified as diabetic and sacrificed.

NOD mice [4] = test: Effect on blood glucose level of daily subcutaneous injection in NOD mice (Example 1); format: in vivo, mouse; conditions: for effect on blood glucose level: day 7, 6 hours after injection, female NOD mice
Procedure: Furthermore, 4 of the 5 animals receiving insulin (3.8 mg/kg) died of hypoglycaemia after 3-5 days of treatment and animal number five had to be sacrificed on day seven due to symptoms of hypoglycaemia.

C57/BL mice = test: Effect of oral administration on blood glucose level in mice (Example 4); format: in vivo, mouse; conditions: oral gavage 1 mg, 2 times a week, after 4 weeks of treatment; non-fasted; 15 minutes
Procedure: After 4 weeks of treatment, the effect on the blood glucose level in non-fasted animals was analyzed. An initial blood sample was taken in order to determine the control blood glucose level. 15-30 minutes later the animals were fed by gavage and the blood glucose level was determined after further 15, 60 and 180 minutes. […] Insulin is a well known growth factor and has a direct mitogenic effect. The consequence of having a high concentration of intact insulin in the gut lumen directly exposing gut epithelium to its effect is not known but could potentially be serious.

Q: For D-Cys^A7 human insulin, which “Activity relative to human insulin (= 1.00)” value [1] is on record?
A: Its value is 0.002.

Q: How did the “Activity relative to human insulin (= 1.00)” value [1] turn out when D-Cys^A11 human insulin was run?
A: The value was 0.007.

Q: Which “Activity relative to human insulin (= 1.00)” value [1] does the source give for des (B23-B30) human insulin here?
A: Its value is 0.001.

Q: des (A1-A2) human insulin was tested. Which “Activity relative to human insulin (= 1.00)” value [1] did it give?
A: Its value is 0.0014.

Q: How did the “Activity relative to human insulin (= 1.00)” value [1] turn out when D-Cys^A6,D-Cys^A11 human insulin was run?
A: The value was 0.00027.

Q: How did the “Activity relative to human insulin (= 1.00)” value [1] turn out when Nle^A2 human insulin was run?
A: The value was 0.01.

Q: Gly^B6 human insulin was tested. Which “Activity relative to human insulin (= 1.00)” value [1] did it give?
A: The value was 0.0005.

Q: With desA1 human insulin as the substance, how does the “Activity relative to human insulin (= 1.00)” value [1] read?
A: Its value is 0.006.

Q: For Ala^A2 human insulin, which “Activity relative to human insulin (= 1.00)” value [1] is on record?
A: Its value is 0.006.

Q: Which “Activity relative to human insulin (= 1.00)” value [1] does the source give for Leu^A3 human insulin here?
A: The value was 0.0018.

Q: How did the “Activity relative to human insulin (= 1.00)” value [1] turn out when Gly^A2 human insulin was run?
A: Its value is 0.01.

Q: Which “hormonally active (relative to human insulin)” value [1] does the source give for Asp^B25 human insulin here?
A: The value was “less than 0.1%”.

Q: And the “Activity relative to human insulin (= 1.00)” value [1]?
A: Its value is 0.001.

Q: What about the “cases of diabetes after termination of treatment” value (NOD mice [2]; 0.77 mg/kg s.c. daily until 32 weeks, observed until 40 weeks) of the same substance?
A: The value was 1 case.

Q: What about the “protection against development of diabetes compared with human insulin” value (NOD mice [2]; listed as X38, 0.77 mg/kg) of the same substance?
A: The value was “prevented the development of diabetes to the same, or higher degree as insulin did”.

Q: What about the “protection against development of diabetes compared with human insulin” value (NOD mice [2]; listed as human insulin with a single amino acid substitution in position B25, 0.77 mg/kg) of the same substance?
A: Its value is “protects as well against diabetes as equimolar doses of human insulin does”.

Q: What about the “diabetes incidence versus buffer treated animals at 40 weeks of age” value (NOD mice [2]) of the same substance?
A: The value was “still highly significantly lower”.

Q: And the “diabetes incidence versus buffer treated animals at 31 weeks of age” value (NOD mice [2])?
A: The value was “highly significantly (p<0.01) lower”.

Q: What about the treated animals died (NOD mice [2]; s.c. daily 0.77 mg/kg, 30 animals per group, not statistically different from buffer group) of the same substance?
A: Its treated animals died is “one”.

Q: What about the “frequency of diabetes compared to buffer treated animals” value (NOD mice [3]) of the same substance?
A: The value was “reduced the frequency of diabetes to the same, or higher degree as insulin did”.

Q: And the treated animals died (NOD mice [3]; s.c. daily 0.77 mg/kg, 20 animals per group)?
A: The treated animals died was “none”.

Q: What about the “cases of diabetes after termination of the treatment” value (NOD mice [3]) of the same substance?
A: Its value is “no cases of diabetes occurred”.

Q: What about the “mice died or displayed hypoglycaemia” value (NOD mice [4]; s.c. daily 17.3, 5.8 or 0.6 mg/kg, 26 days observation period) of the same substance?
A: Its value is “None”.

Q: What about the “effect on blood glucose level” value (NOD mice [4]; s.c. daily 17.3, 5.8 or 0.6 mg/kg) of the same substance?
A: Its value is “do not affect the blood glucose levels”.

Q: Which “Activity relative to human insulin (= 1.00)” value [1] does the source give for des (B1-B5) human insulin here?
A: Its value is 0.05.

Q: Pro^A2 human insulin was tested. Which “Activity relative to human insulin (= 1.00)” value [1] did it give?
A: The value was 0.01.

Q: With des (B1-B6) human insulin as the substance, how does the “Activity relative to human insulin (= 1.00)” value [1] read?
A: The value was 0.0004.

Q: With des (B24-B30) human insulin as the substance, how does the “Activity relative to human insulin (= 1.00)” value [1] read?
A: The value was 0.002.

Q: Which “Activity relative to human insulin (= 1.00)” value [1] does the source give for Nle^A3 human insulin here?
A: Its value is 0.0038.

Q: For Nva^A3 human insulin, which “Activity relative to human insulin (= 1.00)” value [1] is on record?
A: The value was 0.014.

Q: Which “Activity relative to human insulin (= 1.00)” value [1] does the source give for D-Ala^B12 human insulin here?
A: The value was 0.007.

Q: With Leu^A19 human insulin as the substance, how does the “Activity relative to human insulin (= 1.00)” value [1] read?
A: The value was 0.001.

Q: Which “Activity relative to human insulin (= 1.00)” value [1] does the source give for Abu^A2,Abu^A3 human insulin here?
A: Its value is 0.0041.

Q: Which “Activity relative to human insulin (= 1.00)” value [1] does the source give for D-Cys^A6 human insulin here?
A: The value was 0.0023.

Q: How did the “Activity relative to human insulin (= 1.00)” value [1] turn out when Thr^A2 human insulin was run?
A: The value was 0.001.

Q: Which “Activity relative to human insulin (= 1.00)” value [1] does the source give for Gly^A2,Gly^A3 human insulin here?
A: Its value is 0.00014.

Q: Asn^B12 human insulin was tested. Which “Activity relative to human insulin (= 1.00)” value [1] did it give?
A: The value was 0.002.

Q: Which results are given for human insulin [reference compound]?
A: diabetes incidence versus buffer treated animals at 40 weeks of age (NOD mice [2]): still significantly (p<0.05) lower; diabetes incidence versus buffer treated animals at 31 weeks of age (NOD mice [2]): significantly reduced the incidence of diabetes; mice died of hypoglycaemia during the treatment period (NOD mice [2]; s.c. daily 0.77 mg/kg, 30 animals per group): approx. 50%; mice died of hypoglycaemia during the treatment period (NOD mice [2]; s.c. daily 0.77 mg/kg, 30 animals per group, listed as insulin): 50%; frequency of diabetes compared to buffer treated animals (NOD mice [3]): reduced the frequency of diabetes; cases of diabetes after termination of the treatment (NOD mice [3]): no cases of diabetes occurred; effect on blood glucose level (NOD mice [4]; s.c. daily 0.6 mg/kg): marked hypoglycaemic effect; time of death from hypoglycaemia (NOD mice [4]; s.c. daily 3.8 mg/kg, days of treatment): 3 to 5 days; animals died of hypoglycaemia (NOD mice [4]; s.c. daily 3.8 mg/kg, group of 5 NOD mice): 4 of the 5; blood glucose level immediately after feeding (C57/BL mice): profound immediate reduction in the blood glucose level

Q: For “Ser^A6,Ser^A11,des(A8-A10) human insulin”, which “Activity relative to human insulin (= 1.00)” value [1] is on record?
A: The value was 0.0001.

Q: For desA21 human insulin, which “Activity relative to human insulin (= 1.00)” value [1] is on record?
A: Its value is 0.04.

Q: Which “Activity relative to human insulin (= 1.00)” value [1] does the source give for des (A1-A3) human insulin here?
A: The value was 0.0011.

Q: With Phe^B12 human insulin as the substance, how does the “Activity relative to human insulin (= 1.00)” value [1] read?
A: The value was 0.002.

Q: For Val^A2,Ile^A3 human insulin, which “Activity relative to human insulin (= 1.00)” value [1] is on record?
A: The value was 0.021.

Q: With Glu^B12 human insulin as the substance, how does the “Activity relative to human insulin (= 1.00)” value [1] read?
A: Its value is 0.0004.

Q: Which “Activity relative to human insulin (= 1.00)” value [1] does the source give for des (B25-B30) human insulin here?
A: Its value is 0.06.

Q: How did the “Activity relative to human insulin (= 1.00)” value [1] turn out when D-allo Ile^A2 human insulin was run?
A: The value was 0.002.
